The values that follow are results of earlier work, collected in paper PMC12441791, “Structural modifications of toxyloxanthone C and macluraxanthone isolated from Maclura cochinchinensis: cytotoxicity, antibacterial activity, and in silico studies” (RSC Advances, 2025).

Structures are written as SMILES. Converted amounts (≈) assume the structure as drawn. Bounds are passed on as bounds.

What all share (design): method as in PMID 35422182
Data set [1] concerns Vero (African green monkey kidney) cells. Particulars: parent xanthones, previous report, read-out: Cytotoxicity (IC50, μM) Vero; cited from earlier work.
Data set [2] relates to Methicillin resistant Staphylococcus aureus (MRSA). Particulars: parent xanthones, previous report; cited from earlier work.
For data set [3], the system named is S. aureus ATCC 25923. Particulars: parent xanthones, previous report; cited from earlier work.
Data set [4] concerns A549 (human lung carcinoma) cells. Particulars: parent xanthones, previous report, read-out: Cytotoxicity (IC50, μM) A549; cited from earlier work.
Data set [5] has as its system Bacillus cereus ATCC 11778. Particulars: parent xanthones, previous report; cited from earlier work.
Data set [6] deals with HelaS3 (human cervical carcinoma) cells. Particulars: parent xanthones, previous report, read-out: Cytotoxicity (IC50, μM) HelaS3; cited from earlier work.
The test system of data set [7] is Bacillus subtilis ATCC 6633. Particulars: parent xanthones, previous report; cited from earlier work.
The test system of data set [8] is HepG2 (human hepatocellular carcinoma) cells. Particulars: parent xanthones, previous report, read-out: Cytotoxicity (IC50, μM) HepG2; cited from earlier work.

Consider `C=CC(C)(C)c1c2c(c(O)c3c(=O)c4ccc(O)c(O)c4oc13)C=CC(C)(C)O2` [Compound 2, Macluraxanthone], for which the IC50 in data set [1] is 4.29 ± 0.6 µM; in data set [4], 6.46 ± 0.98 µM; in data set [6], 1.59 ± 0.12 µM; in data set [8] it was 5.26 ± 0.41 µM. Moreover, in data set [2], the “MIC MRSA” value is 16 µg/mL (≈ 40.6 µM). The “MIC S. aureus” value in data set [3] was more than 128 µg/mL. Also, the “MIC B. cereus” value in data set [5] was 64 µg/mL (≈ 162 µM). Besides, the “MIC B. subtilis” value in data set [7] was 64 µg/mL (≈ 162 µM).

Turning to `CC1Oc2cc3oc4c(O)c(O)ccc4c(=O)c3c(O)c2C1(C)C` (stereo not shown) [Compound 1, Toxyloxanthone C], the IC50 in data set [1] was 8.52 ± 0.64 µM; in data set [4], 21.8 ± 4.89 µM; in data set [6] it was 13.6 ± 1.11 µM; in data set [8] it was 20.8 ± 2.57 µM. In addition, the “MIC MRSA” value in data set [2] is 128 µg/mL (≈ 390 µM). For the same molecule, the “MIC S. aureus” value in data set [3] is 128 µg/mL (≈ 390 µM). The “MIC B. cereus” value in data set [5] is 128 µg/mL (≈ 390 µM). In addition, the “MIC B. subtilis” value in data set [7] was 128 µg/mL (≈ 390 µM).
